US8754057B2, “Inhibition of apoptosis-specific eIF-5A(eIF-5A1″) with antisense oligonucleotides and siRNA as anti-inflammatory therapeutics” (Senesco Technologies, Inc., priority 2003, dated 2014)

Test system: lamina cribrosa cell line #517
Assay: Hoescht staining apoptosis of siRNA-transfected lamina cribrosa cells treated with TNF-α and camptothecin
Assay type: cell-based, human
Conditions: 72 h after siRNA transfection, 24 h TNF-α plus camptothecin
Procedure: Lamina cribrosa cell line #517 cells were seeded at 7500 cells per well onto an 8-well culture slide. Three days later the LC cells were transfected with either apoptosis-specific eIF-5A siRNA #1 (SEQ ID NO:30) or control siRNA #5 (SEQ ID NO:34). 72 hours after transfection, the transfected cells were treated with 10 ng/ml TNF-α plus 50 μM camptothecin. Twenty-four hours later the cells were stained with Hoescht 33258 and viewed by fluorescence microscopy using a UV filter. Cells with brightly stained condensed or fragmented nuclei were counted as apoptotic. The results of two independent experiments are represented here.
Small inhibitory RNAs (siRNAs) directed against human apoptosis-specific eIF-5A were used to specifically suppress expression of eIF5A in lamina cribrosa cells. Six siRNAs were generated by in vitro transcription using the Silencer™ siRNA Construction Kit (Ambion Inc.), Four siRNAs were generated against human apoptosis-specific eIF-5A (siRNAs #1 to #4). […] The siRNAs were generated according to the manufacturer's protocol. […]
Transfected cells that had been treated with TNF-α and camptothecin for 24 hours were stained with Hoescht 33258 in order to determine the percentage of cells undergoing apoptosis. […] Cells with brightly stained or fragmented nuclei were scored as apoptotic. A minimum of 200 cells were counted per well. […]

siRNA #1: siRNA against human apoptosis-specific eIF-5A (SEQ ID NO:30); target 5′ AAAGGAATGACTTCCAGCTGA 3′ (SEQ ID NO: 81) (AAAGGAAUGACUUCCAGCUGATT; RNA, all phosphodiester, T or U not given here; listed as Homo sapiens)
reduce apoptosis of the LC line #517: 53%
